Several values for one entry are separate records, joined by “and”; a condition that tells them apart may be missing. Equal entries are not always repeated.
Experiments:
[1] = system: anti-HCV antibodies (HCV-positive sera); assay: ELISA detection of anti-HCV antibodies in HCV-positive sera with adsorbed peptides; assay type: binding, human
Description: The reactivity of these three peptides towards the sera of individuals infected with the hepatitis C virus, termed (HCV) positive, was evaluated in an ELISA test according to the procedure described below.
(§1) Detection of anti-HCV Antibodies by ELISA
(§2) The wells of a microtiter plate of "NUNC MAXISORB™" trademark are saturated with 100 μl of a solution containing the peptide or a mixture of peptides (10 μg/ml) for 2 hours at 37° C. The plate is then emptied, then washed with a wash buffer containing 0.05% TWEEN™ 20(polysorbate 20). The wells are saturated with 100 μl of wash buffer supplemented with 10% goat serum (v/v), then incubated for 30 minutes at 37° C., then washed again as above. The sera to be analyzed are diluted to the appropriate dilution with saturation buffer. The incubation of the sera is 1 hour at 37° C. The wells are again washed. The solution of conjugate (goat IgG to human IgG labelled with peroxidase) at a dilution of 1/1000 in the saturation buffer is then added and the incubation lasts for 90 minutes at 37° C. After washing, the solution of orthophenylenediamine substrate is added. After 10 minutes, the reaction is stopped with 50 μl of H2 SO4 and the optical density is read at 492 nm. It should be noted that all the tests were carried out in duplicate.
(§3) For that, the different peptides are adsorbed on the microplates at a concentration of 10 μg/ml and the sera are used at 1/100 dilution.
(§4) The values obtained, which are collated in Table 1 below, correspond to the optical density (OD) multiplied by 10^3, at 492 nm.
(§5) For each serum the experiment was carried out in duplicate. The **** are values outside the upper scale.
The different peptides are absorbed onto microplates at a concentration of 10 μg/ml and the sera are used at the dilution stated.
The values obtained, which are collated in Table 2 below, correspond to the optical density at 492 nm. All the experiments were carried out in duplicate.
Each serum was, in a first instance, tested at the dilution 1/100.
The values given correspond to the optical density read at 492 nm multiplied by the factor 10^3.

normal sera = assay: ELISA of peptides on normal sera (specificity); assay type: binding, human; settings: peptide 10 μg/ml, duplicate
Description: as §1, §2, §3, §4, §5

P37G: peptide corresponding to the amino acid sequence 7 to 45 of the CORE protein (PQRKTKRNTNRRPQDVKFPGGGQIVGGVYLLPRRGPRLG)
optical density at 492 nm ([1]; Table 5, serum A8, 1/10,000): 525 OD × 10^3
optical density at 492 nm ([1]; Table 5, serum A 9, 1/1000): 2059 OD × 10^3
optical density at 492 nm ([1]; Table 5, serum A 9, 1/10,000): 275 OD × 10^3
optical density at 492 nm ([1]; Table 5, serum A10, 1/10,000): 1215 OD × 10^3
optical density at 492 nm ([1]; Table 5, serum A11, 1/10,000): 321 OD × 10^3
optical density at 492 nm ([1]; Table 5, serum A12, 1/10,000): 823 OD × 10^3
optical density at 492 nm ([1]; Table 5, serum A13, 1/10,000): 1061 OD × 10^3
optical density at 492 nm ([1]; Table 5, serum A14, 1/1000): 539 OD × 10^3
optical density at 492 nm ([1]; Table 5, serum A14, 1/10,000): 65 OD × 10^3
optical density at 492 nm ([1]; Table 5, serum A15, 1/10,000): 905 OD × 10^3
optical density at 492 nm ([1]; Table 5, serum A16, 1/10,000): 2003 OD × 10^3
optical density at 492 nm ([1]; Table 5, serum A19, 1/10,000): 446 OD × 10^3
optical density at 492 nm ([1]; Table 5, serum A20, 1/10,000): 2338 OD × 10^3
optical density at 492 nm ([1]; Table 5, serum A21, 1/1000): 652 OD × 10^3
optical density at 492 nm ([1]; Table 5, serum A21, 1/10,000): 90 OD × 10^3
optical density at 492 nm ([1]; Table 5, serum A22, 1/1000): 702 OD × 10^3
optical density at 492 nm ([1]; Table 5, serum A22, 1/10,000): 102 OD × 10^3
optical density at 492 nm ([1]; Table 5, serum A23, 1/10,000): 557 OD × 10^3
reactivity towards HCV-positive sera ([1]; in words): little or no difference is observed in reactivity

R40R: peptide extending from arginine 74 up to arginine 115 of the HCV CORE protein (RTWAQPGYPWPLYGNEGCGWAGWLLSPRGSRPSWGPTDPRRR)
optical density at 492 nm (normal sera; normal serum SN 10, 1/100): 163 OD × 10^3 and 154 OD × 10^3
optical density at 492 nm (normal sera; normal serum SN 11, 1/100): 150 OD × 10^3 and 138 OD × 10^3
optical density at 492 nm (normal sera; normal serum SN 16, 1/100): 426 OD × 10^3 and 439 OD × 10^3
optical density at 492 nm (normal sera; normal serum SN 17, 1/100): 104 OD × 10^3 and 74 OD × 10^3
optical density at 492 nm (normal sera; normal serum SN 18, 1/100): 119 OD × 10^3 and 87 OD × 10^3
optical density at 492 nm (normal sera; normal serum SN 19, 1/100): 480 OD × 10^3 and 496 OD × 10^3
sera with which the peptide reacts ([1]; cf Table 1): about 10%
optical density at 492 nm ([1]; serum B 1, 1/100, peptide 10 μg/ml, duplicate): 172 OD × 10^3 and 173 OD × 10^3
optical density at 492 nm ([1]; serum B 2, 1/100, peptide 10 μg/ml, duplicate): 364 OD × 10^3 and 345 OD × 10^3
optical density at 492 nm ([1]; serum B 3, 1/100, peptide 10 μg/ml, duplicate): 304 OD × 10^3 and 341 OD × 10^3
optical density at 492 nm ([1]; serum B 4, 1/100, peptide 10 μg/ml, duplicate): 405 OD × 10^3 and 346 OD × 10^3
optical density at 492 nm ([1]; serum B 5, 1/100, peptide 10 μg/ml, duplicate): 360 OD × 10^3 and 281 OD × 10^3
optical density at 492 nm ([1]; serum B 6, 1/100, peptide 10 μg/ml, duplicate): 172 OD × 10^3 and 163 OD × 10^3
optical density at 492 nm ([1]; serum B 7, 1/100, peptide 10 μg/ml, duplicate): 418 OD × 10^3 and 457 OD × 10^3
optical density at 492 nm ([1]; serum B 8, 1/100, peptide 10 μg/ml, duplicate): 271 OD × 10^3 and 259 OD × 10^3
optical density at 492 nm ([1]; serum B 9, 1/100, peptide 10 μg/ml, duplicate): 235 OD × 10^3 and 229 OD × 10^3
optical density at 492 nm ([1]; serum B 10, 1/100, peptide 10 μg/ml, duplicate): 108 OD × 10^3 and 98 OD × 10^3
optical density at 492 nm ([1]; serum B 11, 1/100, peptide 10 μg/ml, duplicate): 164 OD × 10^3 and 184 OD × 10^3
optical density at 492 nm ([1]; serum B 12, 1/100, peptide 10 μg/ml, duplicate): 136 OD × 10^3 and 117 OD × 10^3
optical density at 492 nm ([1]; serum B 13, 1/100, peptide 10 μg/ml, duplicate): 140 OD × 10^3 and 99 OD × 10^3
optical density at 492 nm ([1]; serum B 14, 1/100, peptide 10 μg/ml, duplicate): 130 OD × 10^3 and 125 OD × 10^3
optical density at 492 nm ([1]; serum B 15, 1/100, peptide 10 μg/ml, duplicate): 301 OD × 10^3 and 303 OD × 10^3
optical density at 492 nm ([1]; serum B 16, 1/100, peptide 10 μg/ml, duplicate): 117 OD × 10^3 and 125 OD × 10^3
optical density at 492 nm ([1]; serum P 1, 1/100, peptide 10 μg/ml, duplicate): 375 OD × 10^3 and 420 OD × 10^3
optical density at 492 nm ([1]; serum P 2, 1/100, peptide 10 μg/ml, duplicate): 399 OD × 10^3 and 391 OD × 10^3
optical density at 492 nm ([1]; serum P 3, 1/100, peptide 10 μg/ml, duplicate): 223 OD × 10^3 and 215 OD × 10^3
optical density at 492 nm ([1]; serum P 4, 1/100, peptide 10 μg/ml, duplicate): 309 OD × 10^3 and 307 OD × 10^3
optical density at 492 nm ([1]; serum P 5, 1/100, peptide 10 μg/ml, duplicate): 129 OD × 10^3 and 176 OD × 10^3
optical density at 492 nm ([1]; serum P 6, 1/100, peptide 10 μg/ml, duplicate): 87 OD × 10^3 and 100 OD × 10^3
optical density at 492 nm ([1]; serum P 7, 1/100, peptide 10 μg/ml, duplicate): 496 OD × 10^3 and 478 OD × 10^3
optical density at 492 nm ([1]; serum P 8, 1/100, peptide 10 μg/ml, duplicate): 282 OD × 10^3 and 328 OD × 10^3
optical density at 492 nm ([1]; serum P 9, 1/100, peptide 10 μg/ml, duplicate): 159 OD × 10^3 and 158 OD × 10^3
optical density at 492 nm ([1]; serum P 10, 1/100, peptide 10 μg/ml, duplicate): 218 OD × 10^3 and 216 OD × 10^3
optical density at 492 nm ([1]; serum P 11, 1/100, peptide 10 μg/ml, duplicate): 1191 OD × 10^3 and 1377 OD × 10^3
optical density at 492 nm ([1]; serum P 12, 1/100, peptide 10 μg/ml, duplicate): 1121 OD × 10^3 and 1231 OD × 10^3
optical density at 492 nm ([1]; serum P 13, 1/100, peptide 10 μg/ml, duplicate): 113 OD × 10^3 and 116 OD × 10^3
optical density at 492 nm ([1]; serum P 14, 1/100, peptide 10 μg/ml, duplicate): 280 OD × 10^3 and 270 OD × 10^3
optical density at 492 nm ([1]; serum P 15, 1/100, peptide 10 μg/ml, duplicate): 2305 OD × 10^3 and 2335 OD × 10^3
optical density at 492 nm ([1]; serum P 16, 1/100, peptide 10 μg/ml, duplicate): 938 OD × 10^3 and 964 OD × 10^3
optical density at 492 nm ([1]; serum P 17, 1/100, peptide 10 μg/ml, duplicate): 217 OD × 10^3 and 212 OD × 10^3
optical density at 492 nm ([1]; serum P 18, 1/100, peptide 10 μg/ml, duplicate): 1427 OD × 10^3 and 1327 OD × 10^3
optical density at 492 nm ([1]; serum P 19, 1/100, peptide 10 μg/ml, duplicate): 84 OD × 10^3 and 89 OD × 10^3
optical density at 492 nm ([1]; serum P 20, 1/100, peptide 10 μg/ml, duplicate): 714 OD × 10^3 and 740 OD × 10^3

Source: US6235284A, “Synthetic polypeptides belonging to the hepatitis C virus (HCV) and which can be used especially for detecting the latter” (Bio Merieux, priority 1992, dated 2001)
